Source: patent publication US6008239A, “Triazole derivative or salt thereof” (SSP Co., Ltd., priority 1997, dated 1999)
≈ marks a conversion by molar mass, not a printed value.

How the values were obtained:
[1] = tested on: A. fumigatus IFM 40808; experiment: Antifungal Activity Against Aspergillus fumigatus (In vitro); type: cell-based; conditions: IFM40808, RPMI 1640 with 0.165M MOPS, pH 7, 35° C., 24 hours
Experimental: Test 2: Antifungal Activity Against Aspergillus fumigatus (In vitro)
(§1) They were incubated at 35° C. for 24 hours. After incubation, the minimum medicament concentration permitting the apparent suppression of mycerial type growth compared with that of a medicament-free control was determined as an MIC value (μg/ml).

[2] = tested on: A. flavus IFM 41935; experiment: Antifungal Activity Against Aspergillus flavus (In vitro); type: cell-based; conditions: IFM41935, RPMI 1640 with 0.165M MOPS, pH 7, 35° C., 24 hours
Experimental: Test 3: Antifungal Activity Against Aspergillus flavus (In vitro)
as §1

[3] = tested on: C. albicans ATCC 44859; experiment: Antifungal Activity Against Candida albicans (In vitro); type: cell-based; conditions: ATCC44859, MEM + 10% fetal bovine serum, 37° C., 24 hours, CO2 incubator, read-out: Terminal point (minimum medicament concentration permitting apparent suppression of mycerial type growth)
Experimental: Test 1: Antifungal Activity Against Candida albicans (In vitro)
They were incubated at 37° C. for 24 hours in a CO2 gas incubator. After incubation, a morphological change of C. albicans was observed under an inverted microscope. The minimum medicament concentration permitting the apparent suppression of mycerial type growth compared with that of a medicament-free control was determined as a terminal point (ng/ml).

[4] = tested on: C. albicans IFM 40009; experiment: Antifungal Activity Against Candida albicans (In vivo), survival of infected mice; set-up: species or system Candida albicans in male ICR (CRJ: CD-1) mice; conditions: i.v. C. albicans infection, oral 1.25 mg/kg, four times in total; for Survival days: 14 days observation, Kaplan-Meier (Cox mantel test), ***: p < 0.001, control 4.1; for Survival mice on Day 14: survivors/total on day 14, control 0/10
Experimental: Test 4: Antifungal Activity Against Candida albicans (In vivo)
After 4-week-old, male, ICR (CRJ: CD-1) mice were fasted for 6 hours, C. albicans IFM 40009 was inoculated to a tail vein of each of the mice to give an amount of 3.0×10^6 cells/mouse, whereby infection was caused. A control group consisted of 10 mice, while a medicament-administered group consisted of 5 mice. The medicament was orally administered one hour after the inoculation of the fungus and then consecutively once a day 24 hours after the inoculation, four times in total, at 1.25 mg/kg each. The survival condition during 14 days after the infection was compared. In addition, the survival days of the control group and the medicament-administered group were detected by the Kaplan-Meier method (Cox mantel test).

Row | Structure (SMILES) | MIC [1] [µg/mL] | MIC [2] [µg/mL] | MIC [3] [µg/mL] | Survival days [4] [days] | Survival mice on Day 14 [4]
1 | COCCSC(F)(F)C(Cn1cncn1)(OC)c1ccc(F)cc1F (stereo not drawn) [Example 1, 1-{2-(2,4-difluorophenyl)-3,3-difluoro-2-methoxy-3-[(2-methoxyethyl)thio]propyl}-1H-1,2,4-triazole] | 64 (≈ 169 µM) | > 64 | 0.0625 | – | –
2 | COCCS(=O)(=O)C(F)(F)C(Cn1cncn1)(OC)c1ccc(F)cc1F (stereo not drawn) [Example 7, 1-{2-(2,4-difluorophenyl)-3,3-difluoro-2-methoxy-3-[(2-methoxyethyl)sulfonyl]propyl}-1H-1,2,4-triazole] | – | – | – | 14.0 | 5/5
3 | COC(Cn1cncn1)(c1ccc(F)cc1F)C(F)(F)S(=O)(=O)CCO (stereo not drawn) [Example 9, 2-{[2-(2,4-Difluorophenyl)-1,1-difluoro-2-methoxy-3-(1H-1,2,4-triazol-1-yl)propyl]sulfonyl}-1-ethanol] | – | – | – | 14.0 | 5/5
4 | CCOC(Cn1cncn1)(c1ccc(F)cc1F)C(F)(F)S(=O)(=O)CCO (stereo not drawn) [Example 10, 2-{[2-(2,4-Difluorophenyl)-2-ethoxy-1,1-difluoro-3-(1H-1,2,4-triazol-1-yl)propyl]sulfonyl}-1-ethanol] | – | – | – | 13.4 | 4/5
5 | COC(Cn1cncn1)(c1ccc(F)cc1F)C(F)(F)S(=O)(=O)CCOC(C)=O (stereo not drawn) [Example 12, 2-{[2-(2,4-Difluorophenyl)-1,1-difluoro-2-methoxy-3-(1H-1,2,4-triazol-1-yl)propyl]sulfonyl}ethyl acetate] | – | – | – | 14.0 | 4/5
6 | OC(Cn1cncn1)(Cn1cncn1)c1ccc(F)cc1F [Fluconazole, reference compound] | > 128 | > 128 | – | 9.6 | 0/5
